This is an account of results in patent US7635709B2, “Compositions and methods for bowel care in individuals with chronic intestinal pseudo-obstruction” (priority 2002, dated 2009).

In series [1] the test system is persons with SCI. Put plainly: Bowel evacuation score by video fluoroscopy after rectal barium-oatmeal paste in thirteen SCI subjects (Example 3). It counts as in vivo, human. To be noted: IV bolus 2 mg neostigmine, with or without 0.4 mg glycopyrrolate, 13 SCI subjects. Here is the method: (§1) Thirteen (13) persons with SCI (5 quadriplegics, 8 paraplegics) with a mean age of 46 years (range 25-69) and mean duration of injury of 16 years (range 1-31) were treated. None of the subjects had known heart disease and/or history of arrhythmias.
(§2) On separate days, subjects were given by IV bolus either (i) 2 mg neostigmine alone, (ii) a combination of 2 mg neostigmine and 0.4 mg glycopyrrolate, or (iii) normal saline. Subjects were blinded to the type of infusion being delivered. The effect of these infusions on bowel evacuation was assessed semi-quantitatively on a scale of 0 (no evacuation) to 4+ (complete evacuation) using video fluoroscopy after rectal instillation of a barium-oatmeal paste having a consistency similar to that of stool. Blood pressure, heart rate and other vital signs were monitored in each subject. In addition, airway resistances were determined in each subject using the forced oscillation technique (as described, for example, in Goldman, Pulm. Pharmacol. Ther., 14(5):341-350, 2001). Total airway resistance was determined using 5 Hz forced oscillations, and central airway resistance was determined using 20 Hz forced oscillations.
This response received a 0 (zero) bowel evacuation score. FIGS. 1B-1E show progressively increasing bowel evacuation responses in different subjects. The responses in FIGS. 1B-1E correspond to bowel evacuation scores of 1+, 2+, 3+, and 4+, respectively.

The subject of series [2] is persons with SCI. Put plainly: Heart rate, blood pressure and side effects monitoring in thirteen SCI subjects (Example 3). In kind it is in vivo, human. To be noted: IV bolus 2 mg neostigmine, with or without 0.4 mg glycopyrrolate, 13 SCI subjects. The method, then:
as §1, §2

Series [3] deals with persons with SCI. In words: Airway resistance by forced oscillation technique in thirteen SCI subjects (Example 3). In kind it is in vivo, human. To be noted: IV bolus 2 mg neostigmine. Here is the method: as §2
Series [4] concerns patients with acute colonic pseudo-obstruction. To be noted: Ponec et al. 1999; cited from earlier work.

`CN(C)C(=O)Oc1cccc([N+](C)(C)C)c1` [neostigmine]: in series [1], the “subjects with prompt and complete evacuation” value is listed as 57 % of subjects; the “time of evacuation post infusion, mean” value stood at 11 min. The “mean bowel evacuation score” value in series [1] (scale 0 (no evacuation) to 4+ (complete evacuation)) is given as “about 2.29”. In series [2], the “change in blood pressure after administration” value is “No change”; the “other side effects (muscle twitching, sweating, vague abdominal sensations, salivation)” value is “transient and minimal”. Moreover, the “mean lowest heart rate measured” value in series [2] (p=0.02 between groups) is on record as “about 49 BMP”. In addition, in series [3] (5 Hz forced oscillations), the “total airway resistance, increase over baseline” value is recorded as “approximately 25.5%”. The “central airway resistance, increase over baseline” value in series [3] (20 Hz forced oscillations) was “approximately 18.4%”. The “passage of flatus or stool with reduction in abdominal distention” value in series [4] is “most patients successfully passed flatus or stool”.
